Source: patent US20080051454A1, “Compositions and methods for transient receptor potential vanilloid (TRPV) channel mediated treatments” (The Board of Trustees Operating Michigan State University, priority 2006, published 2008)

How the values were obtained:
WT hearts = assay: Lactate dehydrogenase (LDH) release during I/R; design: species or system mouse
Protocol: Lactate dehydrogenase (LDH) release: In addition to the measurement of cardiac function, cardiac injury was assessed by measuring LDH release. Perfusion effluent was collected during the first 10 minutes to 20 minutes of I/R and stored at […] until analyzed. Total LDH levels were determined with the use of a CytoTox 96 assay (Promega). The data were expressed as absorbance units released per milliliter per minute per gram of heart wet tissues (Turnbull et al., Am J Physiol Heart Circ Physiol 290: […]-9, 2006; herein incorporated by reference).

[1] = system: Wistar rats fed a NS or HS diet for 10 days; assay: MAP responses to i.v. capsaicin with or without CAPZ in urethane-anesthetized rats; format: in vivo, rat
Protocol: Surgical Preparation Rats were anesthetized with ketamine and xylazine (80 and 4 mg/kg intraperitoneally, respectively) for cannulation or with urethane (1.5 g/kg intraperitoneally) for capsaicin administration. The left jugular vein, carotid and femoral artery were cannulated under anesthesia for injection of drugs or monitoring of mean arterial pressure (MAP) and heart rate (HR).
Each dose of injection was separated by a 30-minute interval. To determine the specificity of capsaicin, CAPZ (3 mg/kg) was administered 10 minutes before capsaicin injection in a separate group.

WT and TRPV1−/− hearts = assay: SP and CGRP release from hearts subjected to PC (radioimmunoassay); design: species or system mouse; conditions: CAPZ 10^−6 M; in WT but not TRPV1−/− hearts
Protocol: Additional WT and TRPV1−/−hearts were treated the same as that of the PC group except that CAPZ (10^−6 M) was added to the solution. In the normal control group, WT and TRPV1−/−hearts were treated the same as that of the PC group except no deprivation of oxygen and glucose. The samples were purified and analyzed by radioimmunoassay. The assay was performed as recommended by the supplier. Commercially available rat CGRP and SP radioimmunoassay kits (Peninsula Laboratories Inc.) were used for determination of SP and CGRP release which was normalized by the heart weight.

TRPV1−/− hearts = assay: Preconditioning (PC) protection against I/R in Langendorff hearts with receptor antagonists, TRPV1-null; design: species or system mouse; conditions: CAPZ 10^−7 M, CGRP8-37 10^−6 M, RP67580 10^−7 M
Protocol: Male TRPV1 gene knockout (TRPV1-/-) strain B6.129S[…][…]^tm1Jul and matching control wild type (WT) strain C57BL/6J mice were used (Jackson Laboratory, Bar Harbor, Me.). Mice were heparinized (500 U/kg i.p.) and anesthetized with pentobarbital sodium (50 mg/kg i.p.). […] The distal end of the catheter was connected to a […] Performance Analyzer via a pressure transducer. Coronary flow (CF) was continuously measured using an ultrasonic flow probe placed in the aortic perfusion line. Hearts were paced at 400 bpm except during ischemic PC and sustained global ischemia to avoid inducing excessive ventricular tachyarrhythmia during reperfusion, and pacing was reinitiated 2 minutes after reperfusion. Left ventricular developed pressure (LVDP, peak systolic minuses LVEDP) and LV peak positive […]) during isovolumic contraction were used as indices of LV systolic function; LVEDP and the peak negative […] used as indices of LV diastolic function. […] Non-preconditioned hearts were time-matched perfused with the same duration as that of preconditioned hearts. Group 1: Controls. As normal controls (nonischemic), WT and TRPV1-/- hearts were perfused for 130 minutes. For I/R controls, WT and TRPV1-/- hearts were first perfused with Krebs-Henseleit buffer for 55 min (time-matched perfusion of the equilibration period plus the PC period), and subsequently subjected to 30 minutes of no-flow normothermic global ischemia followed by 40-minutes of reperfusion. Group 2: PC. […] The hearts were subjected to 30 minutes of no-flow normothermic global ischemia followed by 40-minutes of reperfusion as that of I/R control groups. Group 3: PC plus capsazepine (CAPZ). […] Two additional concentrations of CAPZ, 10^-6M and 10^-8 M, were used in WT hearts. An additional drug control was added. After a 20-minute equilibration period, WT hearts were perfused with CAPZ (10^-7 M) for 10 minutes without PC, followed by perfusion with Krebs-Henseleit buffer for 25 minutes (time-matched perfusion of the PC period) and then subjected to I/R. Group 4: […] […]

mesenteric arteries = assay: NADA-induced CGRP release from isolated mesenteric arteries (radioimmunoassay); design: species or system rat; conditions: CAPZ 10 μM pretreatment, NADA 10 μM; NS or HS
Protocol: After an 1 h stabilization period, the arteries were transferred to another chamber containing 1 ml of Krebs's solution with the addition of 0.05% BSA and drugs including NADA (1 or 10 μM) or CAPZ (10 μM). The tissues were removed after 20 min incubation, and the solutions were collected and evaporated. […] At the end of the experiment, the tissues were blotted and weighted. […] The results are expressed as pg of milligram of tissues.
This antibody has 100% cross-reactivity with rat a-CGRP and 79% with β-CGRP. There is no cross-reactivity with rat amylin, calcitonin, somatostatin, or substance P. The assay was performed following the manufacturer's protocol.

effect on PC protection assessed by LDH levels after I/R in WT hearts (WT hearts): abolished
Structure (SMILES): Oc1cc2c(cc1O)CN(C(=S)NCCc1ccc(Cl)cc1)CCC2 [CAPZ, N-[2-(4-Chlorophenyl)ethyl]-1,3,4,5-tetrahydro-7,8-dihydroxy-2H-2-benzazepine-2-carbothioamide]
capsaicin-induced decrease in MAP after CAPZ ([1]; CAPZ 3 mg/kg before capsaicin 10 μg/kg, HS): 4±1 mmHg
capsaicin-induced decrease in MAP after CAPZ ([1]; CAPZ 3 mg/kg before capsaicin 10 μg/kg, NS): 4±1 mmHg
capsaicin-induced decrease in MAP after CAPZ ([1]; CAPZ 3 mg/kg before capsaicin 30 μg/kg, HS): 6±2 mmHg
capsaicin-induced decrease in MAP after CAPZ ([1]; CAPZ 3 mg/kg before capsaicin 30 μg/kg, NS): 5±1 mmHg
CGRP release from hearts subjected to PC (WT and TRPV1−/− hearts): attenuated
SP release from hearts subjected to PC (WT and TRPV1−/− hearts): attenuated
effect on these parameters in TRPV1−/− hearts (TRPV1−/− hearts): no effect
effect on NADA-induced CGRP release (mesenteric arteries): blocked
